Non-standard residues stand in square brackets, D forms with d. Residues, ends and D or L forms follow the SMILES beside them. pGlu = O=C1CC[C@@H](C(=O)O)N1; azaGly = NNC(=O)O
System: human term placental explants
Test: Static explant culture, release of hCG, progesterone, PGE2
Format: cell-based
Excerpt: The biological activity of the newly synthesized non-mammalian GnRH analogs was studied using a static implant culture system. This system allows for inexpensive extended activity studies. Mammalian GnRH action on the human placenta release of hCG, progesterone and prostaglandins were defined using this system. Replicate cultures were studied, thus allowing for comparison of different doses of each non-mammalian GnRH analog to mammalian GnRH (SEQ ID NO: 5), as well as direct competition assays. […] These studies were repeated using different human placentas. Siler-Khodr T M, Khodr G S, Valenzuela G, Rhode J 1986 Gonadotropin-releasing hormone effects on placental hormones during gestation: II. Progesterone, estrone, estradiol and estriol. Biol Reprod 34:255-264; Siler-Khodr T M, Khodr G S, Valenzuela G, Rhode J 1986 Gonadotropin-releasing hormone effects on placental hormones during gestation: 1 Alpha-human chorionic gonadotropin, human chorionic gonadotropin and human chorionic somatomammotropin. Biol Reprod 34:245-254; Siler-Khodr T M, Khodr G S, Valenzuela G, Harper J, Rhode J 1986 GnRH effects on placental hormones during gestation. 111 Prostaglandin E, prostaglandin F, and 13, 14-dihydro-15-keto-prostaglandin F. Biol Reprod 35:312-319.
In these and additional studies, an explant culture system was used to determine the effect of mammalian GnRH (SEQ ID NO: 5), chicken II GnRH (SEQ ID NO: 6), or the D-Arg(6)-chicken II GnRH-aza-Gly(10)-amide analog (SEQ ID NO: 2) on the release of the hCG, progesterone, and prostaglandin E2. Human term placentas were dissected free of membranes, minced into fragments of 5 mm, rinsed in medium, and a total weight of ˜100 mg (20 explants) was placed on a sterile filter paper resting on an organ culture grid such that they touched the surface of the culture medium, but were not immersed in it. The medium contained penicillin, streptomycin, and fungizone at 100 U/mL, 100 μg/mL, and 2.5 μg/mL respectively with and without varying doses of GnRH isoforms or analogs was added to each Petri dish. Triplicate chambers for each media were made and incubated at 37 C in a humidified chamber with an atmosphere of 5% CO2 and 95% air. Spent media were collected and replaced after 2 hours, 24 hours, and 48 hour of culture and stored frozen at −20° C. until assayed for hormones. HCG, progesterone, and PGE2 were measured using specific double antibody procedures as described previously. The chicken II GnRH analog (SEQ ID NO: 2) was studied using four different human term placentas, and the native chicken II GnRH isoform was also studied using one human term placenta. Gibbons J M, Mitnick M, Chieffo V 1975 In vitro biosynthesis, of TSH- and LH-releasing factors by the human placenta. Am J Obstet Gynecol 121:127-131.

N=C(N)NCCC[C@@H](NC(=O)[C@H](Cc1c[nH]cn1)NC(=O)[C@H](CO)NC(=O)[C@H](Cc1c[nH]c2ccccc12)NC(=O)[C@H](Cc1c[nH]cn1)NC(=O)[C@@H]1CCC(=O)N1)C(=O)N[C@@H](Cc1c[nH]c2ccccc12)C(=O)N[C@@H](Cc1ccc(O)cc1)C(=O)N1CCC[C@H]1C(=O)NNC(N)=O [D-Arg(6)-chicken II GnRH-aza-Gly(10)-amide] ([pGlu]HWSH[dR]WYP[azaGly]-NH2)
progesterone release at higher concentrations: also inhibited
effect on hCG at higher concentrations (1-9 μM): inhibition of hCG
PGE2 release (2 and 24 hours): not significantly changed
hCG release after 2, 24 and 48 hours of treatment (P<0.05): significant dose-related inhibition
stimulation of hCG (first two hours, lowest concentration 250 nM): as much as a three fold stimulation
hCG in presence of exogenous GnRH (three placentas, later studies): inhibition of hCG
